Results: patent US12421276B2 (priority 2016, dated 2025)
Values belong to the compound of their own block, whether it stands above or below them. Where a SMILES comes first, the peptide text is derived from it. [ ]: non-standard residue; d: D form. The star is where a group is joined. ξ: configuration not given here. ξpY = NC(Cc1ccc(OP(=O)(O)O)cc1)C(=O)O; Ile(3ξ) = CCC(C)[C@H](N)C(=O)O; Hexanoyl = CCCCCC(=O)*; Ahx = NCCCCCC(=O)O

Experiments:
[1] = Plasma stability study, human plasma; assay type: in vitro ADME; details: human, plasma
Description: (§1) Human and rat plasma (K2 EDTA) were obtained from Bioreclamation.
(§2) Compounds were dissolved as 0.3 mM DMSO stocks. Compounds were transferred to the plasma at 1 μM on a 96-well deep well plate. After mixing, samples were transferred to several 96-well plates (25 μL/well), and incubated at 37° C. The extent of metabolism was calculated as the disappearance of the test compound, compared to the 0-min control reaction incubations. Propantheline was included as a positive control to verify assay performance.
(§3) At each of the time points, 150 μL of quench solution (50% acetonitrile, 50% methanol with 0.05% formic acid) with internal standard (bucetin for positive ESI mode and warfarin for negative ESI mode) was transferred to each well. Plates were sealed and centrifuged at 4° C. for 15 minutes at 4000 rpm. The supernatant was transferred to fresh plates for LC/MS/MS analysis.
(§4) Elution conditions are detailed in the table below.
(§5) Initial rates of the clearance of test compounds were calculated using linear regression of semi-log plot of % remaining of compounds versus time. The elimination rate constant (equals to −slope) of the linear regression was then used to determine t½ values.

[2] = Plasma stability study, rat plasma; assay type: in vitro ADME; details: rat, plasma
Description: as §1, §2, §3, §4, §5

[3] = test system: Caco-2 cells; test: Caco-2 permeability study with or without P-gp inhibitor GF120918; details: for Abs. Quotient: (Papp A-B with inhibitor − without inhibitor)/Papp A-B with inhibitor; for Caco-2 Cells Permeability Recovery Rate: 1 hr, pH 7.4
Description: Buffer=HBSS, pH 7.4 with 5 mM HEPES
Caco-2 cell plates were obtained commercially and were maintained for 21 days at 37° C. with 5% CO2. Cells were washed with Hank's Balanced Salt Solution (HBSS) 30 min before starting the experiment. Test compound solutions were prepared by diluting from DMSO stock into HBSS buffer in the presence or absence of 10 μM of P-gp inhibitor GF120918. The final DMSO concentration is 0.2%. Prior to each experiment, cell monolayer integrity was verified by transendothelial electrical resistance (TEER). Transport experiment was initiated by adding test compounds to the apical (75 μL) side. Transport plates were incubated at 37° C. in a humidified incubator with 5% CO2. Samples were taken from the donor and acceptor compartments after 1 hr and analyzed by liquid chromatography with tandem mass spectrometry (LC/MS/MS).
Apparent permeability (Papp) values were calculated using the following equation: Papp=(dQ/dt)/A/C0
where dQ/dt is the initial rate of amount of test compound transported across cell monolayer, A is the surface area of the filter membrane, and C0 is the initial concentration of the test compound. C0 is calculated for each condition using a 4-point calibration curve.
Absorption quotient between the two assay conditions was calculated by the following equation:
Absorption quotient (AQ)=(Papp, A-B with inhibitor−Papp, A-B without inhibitor)/Papp, A-B with inhibitor where Papp, A-B with inhibitor and Papp, A-B without inhibitor represent the apparent permeability of test compound from the apical to basal side of the cellular monolayer in the presence and absence of 10 μM P-gp inhibitor GF120918, respectively.
All samples were analyzed on LC/MS/MS using an AB Sciex API 4000 instrument, coupled to a Shimadzu LC-20AD LC Pump system. Analytical samples were separated using a Waters Atlantis T3 dC18 reverse phase HPLC column (10 mm×2.1 mm) at a flow rate of 0.5 mL/min. The mobile phase consisted of 0.1% formic acid in water (solvent A) and 0.1% formic acid in acetonitrile (solvent B).

[4] = Metabolic stability in simulated intestinal fluid (SIF), pH 6.8, with or without pancreatin; assay type: in vitro ADME; details: 5 μM, 37° C.
Description: (§6) Metabolic Stability in SIF and SGF (Simulated Intestinal and Gastric Fluid)
Buffer 3=SIF without enzyme
Buffer 4=SIF with 1% pancreatin
(§7) SIF was prepared freshly with 8.7 mM NaOH, 28.65 mM NaH2PO4, 105.85 mM NaCl, with a final pH of 6.8. SGF was prepared freshly with 34.2 mM NaCl, with a final pH of 1.2. Enzymes such as pepsin or pancreatin were added to some buffers. Human and rat plasma (K2 EDTA) were purchased from BioreclamationIVT.
(§8) Compounds were dissolved as 1.5 mM DMSO stocks. Compounds were transferred to SIF, SGF, or plasma at 5 μM on a 96-well deep well plate. After mixing, samples were transferred to several 96-well plates (25 μL/well), and incubated at 37° C. The extent of metabolism was calculated as the disappearance of the test compound, compared to the 0-min control reaction incubations. Candesartan Cilexetil and omeprazole were included as positive controls for SIF and SGF, respectively, to verify assay performance.
as §3, with “(100% acetonitrile” for “(50% acetonitrile, 50% methanol”, “0.1%” for “0.05%”
as §4, §5

[5] = Metabolic stability in simulated gastric fluid (SGF), pH 1.2, with or without pepsin; assay type: in vitro ADME; details: 5 μM, 37° C.
Description: as §6
Buffer 1=SGF without enzyme
Buffer 2=SGF with 0.32% pepsin
as §7, §8
as §3, with “(100% acetonitrile” for “(50% acetonitrile, 50% methanol”, “0.1%” for “0.05%”
as §4, §5

[6] = assay type: in vivo, rat; details: Rat, PO, 10 mg/kg equiv., n = 4
Description: • 1. Eight (8) male JVC SD rats (purchased from Charles River Lab) were monitored daily for body condition and health status during the 3-5 days acclimation period. The rats were randomly assigned into […] (n=4). • 2. […] The dosed rats were individually placed into a metabolic cage, and have access to food and water at all times. The urine from each rat was collected daily from the metabolic cages, and kept in dry ice. • 4. At predose (0 min), 5 min, 15 min, 30 min, 1 hr, 2 hr, 8 hr, and 24 hr post dosing, approximately 200 ul blood samples were collected from each rat and transferred to EDTA tubes. • 5. The blood samples in EDTA vials were centrifuged at 4° C. and 6,000 rpm for 10 minutes to generate ˜100 μl of plasma per sample. Blood samples were processed as quickly as possible and remain no longer than 2 min at room temperature and no longer than 15 minutes at 4° C. prior to processing. • 6. All samples were transferred for bioanalytic assay using LCMS

[7] = +GF120918 (10 μM), 10 μM compound
[8] = analyte: Parent (BASE STRUCTURE)

Plasma Stability Half-Life [1]: 31.3 min
Plasma Stability Half-Life [2]: 8.2 min
Abs. Quotient [3]: 0.78
Caco-2 Cells Permeability Recovery Rate [3, 7]: 96%
Caco-2 Cells Permeability Recovery Rate ([3]; −GF120918, 10 μM compound): 91%
SMILES: CCCCCC(=O)NC(Cc1ccc(OC(=O)CN2CCOCC2)cc1)C(=O)NC(C(=O)NCCCCCC(N)=O)C(C)CC (stereo not drawn) [Compound A23]

Plasma Stability Half-Life [1]: 7.3 min
Plasma Stability Half-Life [2]: 64.2 min
Abs. Quotient [3]: 0.88
Caco-2 Cells Permeability Recovery Rate [3, 7]: 72%
Caco-2 Cells Permeability Recovery Rate ([3]; −GF120918, 10 μM compound): 72%
SMILES: CCCCCC(=O)NC(Cc1ccc(OC(=O)CN2CCCC2)cc1)C(=O)NC(C(=O)NCCCCCC(N)=O)C(C)CC (stereo not drawn) [Compound A24]

SMILES: CCCCCC(=O)NC(Cc1ccc(OP(=O)(O)O)cc1)C(=O)N[C@H](C(=O)NCCCCCC(N)=O)C(C)CC.N.N (stereo partly drawn) [Compound A29] (Hexanoyl-[ξpY]-[Ile(3ξ)]-[Ahx]-NH2)
SIF Stability (pH 6.8) Half-Life (min) ([4]; +Pancreatin (1%)): Neg.
SIF Stability (pH 6.8) 0 min ([4]; +Pancreatin (1%)): 100%
SIF Stability (pH 6.8) 60 min ([4]; +Pancreatin (1%)): 94%
SIF Stability (pH 6.8) 120 min ([4]; +Pancreatin (1%)): 98%
SIF Stability (pH 6.8) 240 min ([4]; +Pancreatin (1%)): 104%
SIF Stability (pH 6.8) Half-Life (min) ([4]; −Pancreatin): Neg.
SIF Stability (pH 6.8) 0 min ([4]; −Pancreatin): 100%
SIF Stability (pH 6.8) 60 min ([4]; −Pancreatin): 96%
SIF Stability (pH 6.8) 120 min ([4]; −Pancreatin): 97%
SIF Stability (pH 6.8) 240 min ([4]; −Pancreatin): 103%
SGF Stability (pH 1.2) Half-Life (min) ([5]; +Pepsin (0.32%)): 225.0 min
SGF Stability (pH 1.2) 0 min ([5]; +Pepsin (0.32%)): 100%
SGF Stability (pH 1.2) 60 min ([5]; +Pepsin (0.32%)): 86%
SGF Stability (pH 1.2) 120 min ([5]; +Pepsin (0.32%)): 63%
SGF Stability (pH 1.2) 240 min ([5]; +Pepsin (0.32%)): 49%
SGF Stability (pH 1.2) Half-Life (min) ([5]; −Pepsin): Neg.
SGF Stability (pH 1.2) 0 min ([5]; −Pepsin): 100%
SGF Stability (pH 1.2) 60 min ([5]; −Pepsin): 117%
SGF Stability (pH 1.2) 120 min ([5]; −Pepsin): 129%
SGF Stability (pH 1.2) 240 min ([5]; −Pepsin): 123%
AUC0-24 [6, 8]: 35.9 ± 27.6 ng·h/mL
AUC0-inf [6, 8]: 48.6 ± 26.5 ng·h/mL
Cmax [6, 8]: 39.7 ± 74.2 ng/mL
Tmax (h) [6, 8]: 2.1 ± 4^ h
half-life [6, 8]: 942 ± 858 min
Tmax ([6]; analyte: Prodrug): 0 h
Abs. Quotient [3]: 0.83
Caco-2 Cells Permeability Recovery Rate [3, 7]: 76%
Caco-2 Cells Permeability Recovery Rate ([3]; −GF120918, 10 μM compound): 86%
